Results reported in US5606037A, “Processes antineoplastic heteronaphthoquinones” (BioChem Pharma Inc., priority 1995, dated 1997).

Tests used:
MAT-B = assay: In vitro cytotoxicity, MAT-B; assay type: cell-based; details: read-out: IC50 MAT-B
Method: (§1) The microculture tetrazolium assay was used to test in vitro cytotoxicity. This assay is described in Plumb, J. A. et al., 1989 Cancer Research 49, 4435-4440, which is herein incorporated by reference. The cytotoxicity of compounds towards tumor cells is measured in vitro using the assay. This assay method is based upon the ability of live, but not dead cells to reduce the yellow water soluble dye 3-(4,5-dimethylthiazol-2-yl)-2,5-diphenyltetrazolium bromide (MTT) to its water insoluble purple formazan product.
(§2) Cells are plated out in 100 μl of culture medium in the microtiter plates at a density of around 1,500-4,000 cells per well. The plates are incubated overnight to allow the cells to become adherent after which the test compound is added (100 μl of appropriate dilution per well). The cells are incubated with test compound at 37° C. for 48 h after which the compound is replaced with fresh medium. After a further 48 h incubation at 37° C., 50 μl of MTT solution (2 mg/ml) is added to each well. The plates are incubated in the dark for 4 h at 37° C. after which the medium is removed. The MTT formazan product is extracted from the cells by the addition of 200 μl DMSO followed by 50 μl of Sorensen's buffer. The plates are shaken briefly and the absorbance at 570 nm is read using a Molecular Devices UV max plate reader. […]

MCF-7 = assay: In vitro cytotoxicity, MCF-7; assay type: cell-based; details: Homo sapiens, MCF7, read-out: IC50 MCF-7
Method: as §1, §2

MCF-7/ADR = assay: In vitro cytotoxicity, MCF-7/ADR; assay type: cell-based; details: Homo sapiens, NCI/ADR-RES, read-out: IC50 MCF-7/ADR
Method: as §1, §2

MAT-B/ADR = assay: In vitro cytotoxicity, MAT-B/ADR; assay type: cell-based; details: read-out: IC50 MAT-B/ADR
Method: as §1, §2

[1] = literature; cited from earlier work

Compound | IC50 (MAT-B) | IC50 (MCF-7) | IC50 (MCF-7/ADR) | IC50 (MAT-B/ADR) | antitumor activity [1]
COc1cccc2c1C(=O)c1c(O)c3c(c(O)c1C2=O)C[C@@](O)(C(=O)CO)C[C@@H]3O[C@H]1C[C@H](N)[C@H](O)[C@H](C)O1 [Adriamycin, reference compound] | 4.6 nM | 5 nM | 6500 nM | 2500 nM | 
CC1O[C@H]2CC(=O)O[C@H]2C2=C1C(=O)c1c(O)c3c(c(O)c1C2=O)[C@H]1C[C@@H](O)[C@]3(O)[C@@H](C)O1 (stereo partly drawn) [Granaticin] |  |  |  |  | reported to show antitumor activity
COC(=O)C1CC2=C(C(=O)c3c(cc4ccccc4c3O)C2=O)C(O[C@H]2C[C@H](NC(=O)C(F)(F)F)[C@H](O)[C@H](C)O2)O1 (stereo partly drawn) [pyranoanthraquinone (H)] |  |  |  |  | found to possess antitumor activity
